Assay: xn = mol fraction of the nth substance listed, in the solute-free solvent

O=c1[nH]cc(F)c(=O)[nH]1 + CO + C1CCOC1
solubility (g/100 g solution)
Settings	283.15 K	288.15 K	293.15 K	298.15 K	303.15 K	308.15 K	313.15 K	318.15 K	323.15 K
x2 = 0.36	0.152	0.171	0.193	0.219	0.254	0.294	0.348	0.403	0.473
x2 = 0.6	0.283	0.317	0.356	0.407	0.472	0.546	0.639	0.745	0.862
x2 = 0.7714	0.423	0.483	0.552	0.636	0.73	0.876	1.04	1.23	1.42
x2 = 0.9	0.58	0.665	0.789	0.914	1.05	1.25	1.43	1.65	1.85

O=C1NS(=O)(=O)c2ccccc21 + CC#N + CCO
solubility (g/100 g solution)
Settings	x2 = 0.0999	x2 = 0.2002	x2 = 0.2997	x2 = 0.3998	x2 = 0.5002	x2 = 0.5999	x2 = 0.7001	x2 = 0.7999	x2 = 0.8999
293.15 K	5.33	7.27	8.67	9.52	9.7	9.58	8.96	7.58	5.52
298.15 K	5.91	7.97	9.45	10.3	10.7	10.6	9.85	8.34	6.08
303.15 K	6.8	9.11	10.7	11.7	12.1	11.9	11.1	9.45	6.93
308.15 K	7.49	9.96	11.7	12.7	13.5	13.2	12.3	10.5	7.63
313.15 K	8.72	11.5	13.3	14.4	14.8	14.6	13.6	11.7	8.61
318.15 K	10.1	13.2	15.3	16.5	16.8	16.7	15.4	13.3	9.87
323.15 K	11.4	14.7	16.9	18.1	18.5	18.2	17	14.6	10.9

CN1CCN(C(=O)OC2c3nccnc3C(=O)N2c2ccc(Cl)cn2)CC1 (stereo not given) + CC#N + O
solubility (g/100 g solution)
Settings	x2 = 0.3	x2 = 0.4	x2 = 0.5	x2 = 0.6	x2 = 0.7	x2 = 0.8	x2 = 0.9
288.15 K	0.593	1.13	2.08	2.78	3.27	3.38	2.87
298.15 K	0.785	1.72	2.61	3.38	4.09	4.14	3.55
308.15 K	0.997	2.11	3.4	4.41	5.3	5.38	4.63
318.15 K	1.26	2.67	4.26	5.76	6.74	7.02	6.08
328.15 K	1.77	3.23	5.56	7.47	8.64	8.93	8.18

Cc1ccc(Nc2nccc(N(C)c3ccc4c(C)n(C)nc4c3)n2)cc1S(N)(=O)=O + CC#N + CCCCO
solubility (g/100 g solution)
Settings	288.15 K	293.15 K	298.15 K	303.15 K	308.15 K	313.15 K	318.15 K	323.15 K	328.15 K
x2 = 0.311	0.00876	0.015	0.0216	0.0293	0.0367	0.0447	0.0534	0.0638	0.0746
x2 = 0.5462	0.0159	0.0251	0.0355	0.0464	0.0592	0.0722	0.0852	0.1	0.117
x2 = 0.7303	0.0138	0.0237	0.0349	0.047	0.0614	0.0758	0.0904	0.107	0.126
x2 = 0.8784	0.0109	0.0167	0.0237	0.0316	0.0398	0.05	0.0607	0.0728	0.0871

CN1CCN(C(=O)OC2c3nccnc3C(=O)N2c2ccc(Cl)cn2)CC1 (stereo not given) + CC(C)=O + O
solubility (g/100 g solution)
Settings	x2 = 0.3	x2 = 0.4	x2 = 0.5	x2 = 0.6	x2 = 0.7	x2 = 0.8	x2 = 0.9
288.15 K	0.188	0.322	0.515	0.825	1.17	1.47	1.48
298.15 K	0.259	0.425	0.644	1.04	1.52	1.9	1.94
308.15 K	0.354	0.615	1.04	1.46	1.99	2.44	2.5
318.15 K	0.545	0.801	1.35	1.88	2.53	3.29	3.5
328.15 K	0.752	1.18	1.75	2.51	3.5	4.63	4.6

Cc1nc(CCl)nc2ccccc12 + CC(C)=O + CCCCCC
solubility (g/100 g solution)
Settings	x2 = 0.144	x2 = 0.266	x2 = 0.403	x2 = 0.556	x2 = 0.729
281.15 K	5.18	8.5	12.8	17.2	22.3
286.15 K	6.57	10.8	15.5	21.2	27.1
291.15 K	8.19	13.3	19.2	25.8	32.3
296.15 K	10.3	16.2	22.9	30.4	39.2
301.15 K	12.7	19.9	28.3	36.2	44.9
306.15 K	15.6	23.9	33.3	42.4	51.9
311.15 K	18.9	28.3	38.4	48.4	58.8
316.15 K	22.5	33.1	43.7	54.6	65
321.15 K	26.6	37.2	49	60.7	71
326.15 K	30.9	42.9	54.4	65.4	75.5
331.15 K	34.9	47.5	59	70.3	79.5

— the CheMixHub drug solubility set
